Results as given in patent publication US20120190666A1, “Heteroaryl Compounds as PIKK Inhibitors” (Amgen Inc., priority 2009, published 2012).

Tested on: phosphorylation of Akt at Serine 473 in U87 MG cells
Assay: pAkt AlphaScreen (U87 cell)
Assay type: cell-based
Conditions: pAkt at Serine 473, U87 MG cells, two hours with compound
Method in brief: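 U87 MG cells (5K per well, plated overnight) treated 2 h at 37 °C with compound, 25 μM to 11.9 pM final in 0.5% DMSO. Lysates assayed for Akt Ser473 phosphorylation with SureFire AlphaScreen, incubated overnight at room temperature; IC50 from percent of control.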

**Q.** Cc1nc(N)nc(-c2c(Nc3cc[nH]n3)nc3ccc(Nc4ccncc4)cn23)n1 [Cpd 166] was tested. Which IC50 (Homo sapiens, U-87 MG, 2 h) did it give?
**A.** The IC50 was 450 nM.

**Q.** Which IC50 (Homo sapiens, U-87 MG, 2 h) does the source give for Cc1nc(N)nc(-c2c(Nc3cc[nH]n3)nc3ccc(-c4ccc5c(c4)CCNC5=O)cn23)n1 [Cpd 175, 6-(3-(4-amino-6-methyl-1,3,5-triazin-2-yl)-2-(1H-pyrazol-3-ylamino)imidazo[1,2-a]pyridin-6-yl)-3,4-dihydro-1(2H)-isoquinolinone] here?
**A.** The IC50 was 30 nM.

**Q.** For Cc1nc(N)nc(-c2c(Nc3cc[nH]n3)nc3ccc(-c4ccc(C(=O)O)cc4C)cn23)n1 [Cpd 177, 4-(3-(4-amino-6-methyl-1,3,5-triazin-2-yl)-2-(1H-pyrazol-3-ylamino)imidazo[1,2-a]pyridin-6-yl)-3-methylbenzoic acid], which IC50 (Homo sapiens, U-87 MG, 2 h) is on record?
**A.** The IC50 was 170 nM.

**Q.** Cc1nc(N)nc(-c2c(Nc3cc[nH]n3)nc3cc(C4=CCN(C(=O)OC(C)(C)C)CC4)ccn23)n1 [Cpd 183, tert-butyl 4-(3-(4-amino-6-methyl-1,3,5-triazin-2-yl)-2-(1H-pyrazol-3-ylamino)imidazo[1,2-a]pyridin-7-yl)-3,6-dihydro-1(2H)-pyridinecarboxylate] was tested. Which IC50 (Homo sapiens, U-87 MG, 2 h) did it give?
**A.** Its IC50 is 760 nM.

**Q.** Which IC50 (Homo sapiens, U-87 MG, 2 h) does the source give for COCCOc1ccn2c(-c3nc(C)nc(N)n3)c(Nc3cc[nH]n3)nc2c1 [Cpd 185, 3-(4-amino-6-methyl-1,3,5-triazin-2-yl)-7-(2-methoxyethoxy)-N-1H-pyrazol-3-ylimidazo[1,2-a]pyridin-2-amine] here?
**A.** The IC50 was 50 nM.

**Q.** How did the IC50 (Homo sapiens, U-87 MG, 2 h) turn out when Cc1nc(N)nc(-c2c(Nc3cc[nH]n3)nc3cc(OCCN4CCCC4)ccn23)n1 [Cpd 188] was run?
**A.** The IC50 was 320 nM.

**Q.** Which IC50 (Homo sapiens, U-87 MG, 2 h) does the source give for Cc1nc(N)nc(-c2c(Nc3ccn(C(=O)Nc4ccccc4)n3)nc3ccccn23)n1 [Cpd 204, 3-((3-(4-amino-6-methyl-1,3,5-triazin-2-yl)imidazo[1,2-a]pyridin-2-yl)amino)-N-phenyl-1H-pyrazole-1-carboxamide] here?
**A.** The IC50 was 90 nM.

**Q.** For Cc1nc(N)nc(-c2c(Nc3cnn(C(=O)Oc4ccccc4)c3)nc3ccccn23)n1 [Cpd 209, phenyl 4-((3-(4-amino-6-methyl-1,3,5-triazin-2-yl)imidazo[1,2-a]pyridin-2-yl)amino)-1H-pyrazole-1-carboxylate], which IC50 (Homo sapiens, U-87 MG, 2 h) is on record?
**A.** Its IC50 is 110 nM.

**Q.** How did the IC50 (Homo sapiens, U-87 MG, 2 h) turn out when Cc1nc(N)cc(-c2c(Nc3ccn(-c4ccccn4)n3)nc3ccccn23)n1 [Cpd 216, 3-(6-amino-2-methyl-4-pyrimidinyl)-N-(1-(2-pyridinyl)-1H-pyrazol-3-yl)imidazo[1,2-a]pyridin-2-amine] was run?
**A.** Its IC50 is 450 nM.

**Q.** With Cc1nc(N)cc(-c2c(Nc3ccn(C(=O)NCc4ccccc4)n3)nc3ccccn23)n1 [Cpd 222, 3-((3-(6-amino-2-methyl-4-pyrimidinyl)imidazo[1,2-a]pyridin-2-yl)amino)-N-benzyl-1H-pyrazole-1-carboxamide] as the compound, how does the IC50 (Homo sapiens, U-87 MG, 2 h) read?
**A.** The IC50 was 1810 nM.

**Q.** For Cc1nc(N)cc(-c2c(Nc3ccn(C(=O)Nc4ccccc4C(F)(F)F)n3)nc3cccnn23)n1 [Cpd 239, 3-((3-(6-amino-2-methyl-4-pyrimidinyl)imidazo[1,2-b]pyridazin-2-yl)amino)-N-(2-(trifluoromethyl)phenyl)-1H-pyrazole-1-carboxamide], which IC50 (Homo sapiens, U-87 MG, 2 h) is on record?
**A.** Its IC50 is 10 nM.

**Q.** How did the IC50 (Homo sapiens, U-87 MG, 2 h) turn out when Cc1nc(N)cc(-c2c(Nc3ccn(C(=O)Nc4cc(F)cc(F)c4)n3)nc3cccnn23)n1 [Cpd 242, 3-((3-(6-amino-2-methyl-4-pyrimidinyl)imidazo[1,2-b]pyridazin-2-yl)amino)-N-(3,5-difluorophenyl)-1H-pyrazole-1-carboxamide] was run?
**A.** Its IC50 is 80 nM.

**Q.** Which IC50 (Homo sapiens, U-87 MG, 2 h) does the source give for Cc1nc(N)cc(-c2c(Nc3ccnn3C(=O)N3CCC3)nc3cccnn23)n1 [Cpd 257, 3-(6-amino-2-methyl-4-pyrimidinyl)-N-(1-(1-azetidinylcarbonyl)-1H-pyrazol-5-yl)imidazo[1,2-b]pyridazin-2-amine] here?
**A.** The IC50 was 1050 nM.

**Q.** Which IC50 (Homo sapiens, U-87 MG, 2 h) does the source give for COc1ccc(-c2ccc3nc(Nc4ccn[nH]4)c(-c4nc(C)nc(N)n4)n3c2)cc1CO [Cpd 286] here?
**A.** The IC50 was 10 nM.

**Q.** Which IC50 does the source give for Cc1nc(N)nc(-c2c(Nc3ccn[nH]3)nc3ccc(CCC(O)CO)cn23)n1 (stereo not drawn) [Cpd 291, 4-(3-(4-amino-6-methyl-1,3,5-triazin-2-yl)-2-(1H-pyrazol-5-ylamino)-midazo[1,2-a]pyridin-6-yl)-1,2-butanediol] here?
**A.** The IC50 was 170 nM.

**Q.** Cc1nc(N)nc(-c2c(Nc3cc[nH]n3)nc3ccc(-c4ccc(S(C)(=O)=O)cc4)cn23)n1 [Cpd 344, 3-(4-amino-6-methyl-1,3,5-triazin-2-yl)-6-(4-(methylsulfonyl)phenyl)-N-1H-pyrazol-3-ylimidazo[1,2-a]pyridin-2-amine] was tested. Which IC50 (Homo sapiens, U-87 MG, 2 h) did it give?
**A.** Its IC50 is 20 nM.

**Q.** Which IC50 (Homo sapiens, U-87 MG, 2 h) does the source give for CNS(=O)(=O)c1ccc(-c2ccc3nc(Nc4cc[nH]n4)c(-c4nc(C)nc(N)n4)n3c2)cc1 [Cpd 351, 4-(3-(4-amino-6-methyl-1,3,5-triazin-2-yl)-2-(1H-pyrazol-3-ylamino)imidazo[1,2-a]pyridin-6-yl)-N-methylbenzenesulfonamide] here?
**A.** The IC50 was 30 nM.

**Q.** Cc1nc(N)nc(-c2c(Nc3ccn(C)n3)nc3ccc(-c4ccc(S(C)(=O)=O)cc4)cn23)n1 [Cpd 354] was tested. Which IC50 (Homo sapiens, U-87 MG, 2 h) did it give?
**A.** The IC50 was 100 nM.
